Target: Carbonic anhydrase 1 (Homo sapiens, UniProt P00915)
Sequence (P00915 whole entry): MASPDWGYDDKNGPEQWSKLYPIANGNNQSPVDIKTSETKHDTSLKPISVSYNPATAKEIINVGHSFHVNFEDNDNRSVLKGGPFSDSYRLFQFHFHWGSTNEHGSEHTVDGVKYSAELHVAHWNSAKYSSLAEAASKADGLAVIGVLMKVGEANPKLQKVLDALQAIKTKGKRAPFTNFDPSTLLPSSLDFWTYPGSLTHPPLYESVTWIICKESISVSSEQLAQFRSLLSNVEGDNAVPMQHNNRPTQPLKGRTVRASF

## O=S([O-])O.[Na+] [SODIUM BISULFITE]
  Ki: 18 mM

## O=[N+]([O-])[O-].[Na+] [SODIUM NITRATE]
  Ki: 7 mM

## [O-][Cl+3]([O-])([O-])O [SODIUM PERCHLORATE]
  Ki: > 200 mM

From ChEMBL document CHEMBL1687944, “Purification and inhibition studies with anions and sulfonamides of an α-carbonic anhydrase from the Antarctic seal Leptonychotes weddellii” (Bioorg Med Chem, 2011)
